From patent publication US10214519B2, “Phosphatidylinositol 3-kinase inhibitors” (Gilead Sciences, Inc., priority 2016, dated 2019)

What follows are compounds tested against PI3Kβ (Homo sapiens (Human), UniProt P42338) (assay: PI3K isoform TR-FRET enzymatic assay (PI3Kβ)). Conditions: 2× Km ATP, 30 minutes at 25° C.
Assay type: biochemical
In short: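 IC50 came from four-parameter dose-response fits, normalized between DMSO and 1 μM wortmannin controls. The read-out was TR-FRET (615/665 nm) of PIP3 displacing fluorescent PIP3 from Europium GRP-1 after 10 mM EDTA termination. Compounds were incubated with purified heterodimeric PI3Kβ for 30 min at 25° C.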

PI3Kβ, sequence (P42338 whole entry, canonical isoform): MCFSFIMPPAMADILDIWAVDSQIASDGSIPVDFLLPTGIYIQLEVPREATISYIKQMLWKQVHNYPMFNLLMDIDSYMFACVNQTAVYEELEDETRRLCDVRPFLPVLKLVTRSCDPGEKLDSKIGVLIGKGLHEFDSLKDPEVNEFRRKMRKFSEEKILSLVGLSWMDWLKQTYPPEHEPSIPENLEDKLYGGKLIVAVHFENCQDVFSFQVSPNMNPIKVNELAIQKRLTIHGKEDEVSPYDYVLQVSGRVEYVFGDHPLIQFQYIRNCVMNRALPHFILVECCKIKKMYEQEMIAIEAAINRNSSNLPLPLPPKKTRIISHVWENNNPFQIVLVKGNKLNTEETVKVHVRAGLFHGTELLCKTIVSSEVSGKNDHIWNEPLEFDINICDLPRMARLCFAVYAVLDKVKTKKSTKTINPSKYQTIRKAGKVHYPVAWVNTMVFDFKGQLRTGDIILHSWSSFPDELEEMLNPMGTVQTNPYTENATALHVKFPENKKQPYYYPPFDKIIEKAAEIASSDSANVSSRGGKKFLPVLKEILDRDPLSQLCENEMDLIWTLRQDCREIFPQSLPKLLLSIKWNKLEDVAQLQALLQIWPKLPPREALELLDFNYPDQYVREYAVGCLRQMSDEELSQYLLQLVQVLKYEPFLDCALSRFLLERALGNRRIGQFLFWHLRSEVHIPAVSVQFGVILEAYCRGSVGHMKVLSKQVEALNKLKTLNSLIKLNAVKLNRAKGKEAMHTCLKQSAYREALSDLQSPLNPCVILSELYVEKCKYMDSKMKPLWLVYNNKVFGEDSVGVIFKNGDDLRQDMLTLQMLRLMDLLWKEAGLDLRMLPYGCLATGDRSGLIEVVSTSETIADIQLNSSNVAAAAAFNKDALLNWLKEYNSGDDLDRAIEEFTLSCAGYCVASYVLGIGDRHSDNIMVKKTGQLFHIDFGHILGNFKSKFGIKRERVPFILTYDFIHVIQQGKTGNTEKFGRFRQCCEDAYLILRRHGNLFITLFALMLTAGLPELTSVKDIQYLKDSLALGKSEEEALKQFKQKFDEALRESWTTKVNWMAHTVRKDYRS
PI3Kβ, sequence (P27986 whole entry partner, canonical isoform): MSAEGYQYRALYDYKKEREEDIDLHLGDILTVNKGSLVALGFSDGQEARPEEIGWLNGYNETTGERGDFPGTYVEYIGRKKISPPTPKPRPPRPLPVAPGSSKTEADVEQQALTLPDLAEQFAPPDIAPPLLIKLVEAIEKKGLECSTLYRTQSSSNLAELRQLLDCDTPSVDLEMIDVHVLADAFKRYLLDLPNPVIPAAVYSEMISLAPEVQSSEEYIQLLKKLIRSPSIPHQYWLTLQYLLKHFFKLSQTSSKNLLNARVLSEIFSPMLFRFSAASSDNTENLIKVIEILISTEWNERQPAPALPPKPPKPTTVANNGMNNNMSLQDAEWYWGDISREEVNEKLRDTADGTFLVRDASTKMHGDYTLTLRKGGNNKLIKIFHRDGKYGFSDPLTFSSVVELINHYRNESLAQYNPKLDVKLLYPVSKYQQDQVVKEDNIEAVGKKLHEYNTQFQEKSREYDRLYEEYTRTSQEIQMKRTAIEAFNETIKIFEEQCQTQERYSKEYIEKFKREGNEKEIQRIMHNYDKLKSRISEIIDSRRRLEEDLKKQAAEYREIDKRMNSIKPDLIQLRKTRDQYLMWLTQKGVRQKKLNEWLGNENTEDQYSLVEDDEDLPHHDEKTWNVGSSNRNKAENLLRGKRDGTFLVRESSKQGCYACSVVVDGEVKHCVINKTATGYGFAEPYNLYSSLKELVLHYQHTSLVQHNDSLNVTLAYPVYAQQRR

Compound | IC50
Cc1nc(-c2cc(N3CCOCC3)cc3c2nc(C)n3-c2ccnc3c(Cl)cccc23)sc1C [Example 216, 4-[3-(8-chloroquinolin4-yl)-7-(4,5-dimethyl-1,3-thiazol-2-yl)-2-methylbenzimidazol-5-yl]morpholine] | 380 nM
Cc1nc2c(-c3nnc[nH]3)cc(N3CCOCC3)cc2n1-c1ccnc2c(F)cc(F)cc12 [Example 145, 4-[3-(6,8-difluoroquinolin-4-yl)-2-methyl-7-(4H-1,2,4-triazol-3-yl)benzimidazol-5-yl]morpholine] | 56 nM
CCc1nc2c(-c3nnc[nH]3)cc(N3CCOCC3)cc2n1-c1c(C)cnc2c(C#N)cccc12 (atropisomer, axis not shown) [Compound 365, 4-(2-ethyl-6-morpholino-4-(4H-1,2,4-triazol-3-yl)-1H-benzo[d]imidazol-1-yl)-3-methylquinoline-8-carbonitrile] | 9100 nM
CCCc1nc2c(-c3ccn[nH]3)cc(N3CCOCC3)cc2n1-c1ccnc2c(F)ccc(F)c12 [Example 389] | 16 nM
Cc1nc2c(Cl)cccc2c(-n2c(C)nc3c(-c4nnc[nH]4)cc(N4CCOCC4)cc32)c1C [Example 70, 4-[3-(8-chloro-2,3-dimethylquinolin-4-yl)-2-methyl-7-(4H-1,2,4-triazol-3-yl)benzimidazol-5-yl]morpholine] | 36 nM
Clc1cccc2c(-n3c(C4CCC4)nc4c(-c5nnc[nH]5)cc(N5CCOCC5)cc43)ccnc12 [Example 30, 4-(1-(8-chloroquinolin-4-yl)-2-cyclobutyl-4-(4H-1,2,4-triazol-3-yl)-1H-benzo[d]imidazol-6-yl)morpholine] | 8 nM
Cc1nnc(-c2cc(N3CCOCC3)cc3c2nc(C)n3-c2c(Cl)cnc3c(Cl)cccc23)[nH]1 (atropisomer, axis not shown) [Compound 367, 4-(1-(3,8-dichloroquinolin-4-yl)-2-methyl-4-(5-methyl-4H-1,2,4-triazol-3-yl)-1H-benzo[d]imidazol-6-yl)morpholine] | 5600 nM
Clc1cccc2c(-n3c(-c4ccncc4)nc4c(-c5nnc[nH]5)cc(N5CCOCC5)cc43)ccnc12 [Example 15, 4-(1-(8-chloroquinolin-4-yl)-2-(pyridin-4-yl)-4-(4H-1,2,4-triazol-3-yl)-1H-benzo[d]imidazol-6-yl)morpholine] | 49 nM
Cc1nc2c(-c3nnc(N)o3)cc(N3CCOCC3)cc2n1-c1ccnc2cc(F)ccc12 [Example 163, 5-(1-(7-fluoroquinolin-4-yl)-2-methyl-6-morpholino-1H-benzo[d]imidazol-4-yl)-1,3,4-oxadiazol-2-amine] | 630 nM
CC(C)(C)c1nc2c(-c3nnc[nH]3)cc(N3CCOCC3)cc2n1-c1ccnc2c(Cl)cccc12 [Example 20, 4-(2-(tert-butyl)-1-(8-chloroquinolin-4-yl)-4-(4H-1,2,4-triazol-3-yl)-1H-benzo[d]imidazol-6-yl)morpholine] | 120 nM
Cc1cc(-n2c(C)nc3c(-c4nc(C)n[nH]4)cc(N4CCOCC4)cc32)c2ccccc2n1 [Example 73, 4-[2-methyl-3-(2-methylquinolin-4-yl)-7-(3-methyl-1H-1,2,4-triazol-5-yl)benzimidazol-5-yl]morpholine] | 78 nM
Cc1cc(-n2c(C)nc3c(-c4nc(C)n[nH]4)cc(N4CCOCC4)cc32)c2ccc(F)cc2n1 [Example 79, 4-[3-(7-fluoro-2-methylquinolin-4-yl)-2-methyl-7-(3-methyl-1H-1,2,4-triazol-5-yl)benzimidazol-5-yl]morpholine] | 110 nM
Cc1nc2c(-c3nnc[nH]3)cc(N3CCOCC3)cc2n1-c1ccnc2ccccc12 [Example 106, 4-[2-methyl-3-quinolin-4-yl-7-(4H-1,2,4-triazol-3-yl)benzimidazol-5-yl]morpholine] | 17 nM

Now from value to compound:

IC50 | Compound
24 nM | Cc1nc2c(-c3ccc[nH]3)cc(N3CCOCC3)cc2n1-c1ccnc2c(Cl)cccc12 [Example 261, 4-[3-(8-chloroquinolin-4-yl)-2-methyl-7-(1H-pyrrol-2-yl)benzimidazol-5-yl]morpholine]
2 nM | Cc1nc2c(-c3nnc[nH]3)cc(N3CCOCC3)cc2n1-c1ccnc2c(Cl)cccc12 (atropisomer, axis not shown) [Compound 361, 4-[3-(8-chloroquinolin-4-yl)-2-methyl-7-(4H-1,2,4-triazol-3-yl)benzimidazol-5-yl]morpholine]
290 nM | Cc1nnc(-c2cc(N3CCOCC3)cc3c2nc(C)n3-c2ccnc3cccc(C)c23)[nH]1 [Example 93, 4-[2-methyl-3-(5-methylquinolin-4-yl)-7-(5-methyl-4H-1,2,4-triazol-3-yl)benzimidazol-5-yl]morpholine]
11 nM | Fc1ccc2c(-n3c(C4CC4)nc4c(-c5nnc[nH]5)cc(N5CCOCC5)cc43)ccnc2c1Cl [Example 38, 4-(1-(8-chloro-7-fluoroquinolin-4-yl)-2-cyclopropyl-4-(4H-1,2,4-triazol-3-yl)-1H-benzo[d]imidazol-6-yl)morpholine]
12 nM | Cc1nc2c(-c3nnc[nH]3)cc(N3CCOCC3)cc2n1-c1ccnc2c(C#N)cccc12 [Example 89, 4-[2-methyl-6-morpholin-4-yl-4-(4H-1,2,4-triazol-3-yl)benzimidazol-1-yl]quinoline-8-carbonitrile]
9 nM | CCc1nc2c(-c3ncco3)cc(N3CCOCC3)cc2n1-c1ccnc2c(F)ccc(F)c12 [Example 217, 4-[3-(5,8-difluoroquinolin-4-yl)-2-ethyl-7-(1,3-oxazol-2-yl)benzimidazol-5-yl]morpholine]
> 10000 nM | CCCc1nc2c(-c3ncco3)cc(N3CCOCC3)cc2n1-c1ccnc2c(F)ccc(F)c12 (atropisomer, axis not shown) [Compound 356, 4-[3-(5,8-difluoroquinolin-4-yl)-7-(1,3-oxazol-2-yl)-2-propylbenzimidazol-5-yl]morpholine]
47 nM | Cc1nnc(-c2cc(N3CCOCC3)cc3c2nc(C)n3-c2c(Cl)cnc3c(Cl)cccc23)[nH]1 [Example 157, 4-(1-(3,8-dichloroquinolin-4-yl)-2-methyl-4-(5-methyl-4H-1,2,4-triazol-3-yl)-1H-benzo[d]imidazol-6-yl)morpholine]
7 nM | Cc1nc2c(-c3cnn[nH]3)cc(N3CCOCC3)cc2n1-c1ccnc2c(Cl)cccc12 [Example 329, 4-(1-(8-chloroquinolin-4-yl)-2-methyl-4-(1H-1,2,3-triazol-5-yl)-1H-benzo[d]imidazol-6-yl)morpholine]
36 nM | Cc1nc2c(-c3cscn3)cc(N3CCOCC3)cc2n1-c1ccnc2c(Cl)cccc12 [Example 270, 4-[3-(8-chloroquinolin-4-yl)-2-methyl-7-(1,3-thiazol-4-yl)benzimidazol-5-yl]morpholine]
9 nM | Cc1ccc(F)c2c(-n3c(C)nc4c(-c5nnc[nH]5)cc(N5CCOCC5)cc43)ccnc12 [Example 124, 4-[3-(5-fluoro-8-methylquinolin-4-yl)-2-methyl-7-(4H-1,2,4-triazol-3-yl)benzimidazol-5-yl]morpholine]
12 nM | Cc1nc2c(-c3nnc[nH]3)cc(N3CCOCC3)cc2n1-c1c(Cl)cnc2c(Cl)cccc12 [Example 97, 4-[3-(3,8-dichloroquinolin-4-yl)-2-methyl-7-(4H-1,2,4-triazol-3-yl)benzimidazol-5-yl]morpholine]
